Assay results published in patent US11951131B2, “Anti-SLAMF7 chimeric antigen receptors” (The United States of America, as represented by the …, priority 2018, dated 2024).
Entries after “also recorded” stand apart in the source; their conditions may differ.

Legend:
SLAMF7-K562 target cells = test: CFSE proliferation assay; assay type: cell-based, human; conditions: SLAMF7-K562 versus NGFR-K562 target cells, 4 days (FIGS. 8B, 8C)
Description: Cocultures were set up in 24-well plates. Target cells included in cocultures were either 0.5×10^6 irradiated SLAMF7-K562 cells or 0.5×10^6 irradiated NGFR-K562 cells. The cocultures also included 1×10^6 T cells from cultures that had been transduced with either […]. The T cells were labeled with carboxy fluorescein diacetate succinimidyl ester (CFSE, Invitrogen) as previously described. The medium used in the cocultures was AIM V™ (Invitrogen) plus 5% human AB serum. IL-2 was not added to the medium. Four days after initiation, the live cells in each coculture were counted with trypan blue for dead cell exclusion, and flow cytometry was performed by Protein L staining.

CCRF-CEM = test: IFN-gamma ELISA, CAR T cells with CCRF-CEM target cells; assay type: cell-based, human
Description: (§1) MM.1S is a SLAMF7^+ multiple myeloma cell line that was obtained from American Type Culture Collection (ATCC). A549 is a BCMA-negative lung cancer cell line (ATCC). TC71 is a BCMA-negative sarcoma cell line. CCRF-CEM, 293T, and A549 are SLAMF7-negative cell lines (ATCC). COL0207, HepG2, U251, Panc10.05, and TC71 are […] that were kind gifts from Dr. Steven Rosenberg, National Cancer Institute. SLAMF7-K562 are K562 cells (ATCC) which were transduced with the gene for full-length SLAMF7. SLAMF7-RPMI are RPMI8226 cells (ATCC) which were transduced with the gene for full-length SLAMF7. NGFR-K562 are K562 cells which were transduced with the gene for low-affinity nerve growth factor (Kochenderfer et al., J. Immunother., 32(7): 689-702 (2009)). All of the human samples mentioned were obtained from patients enrolled in IRB-approved clinical trials at the National Cancer Institute.
(§2) One-hundred thousand SLAMF7^+ or SLAMF7-negative target cells were combined with 100,000 CAR-transduced T cells in duplicate wells of a 96 well round bottom plate in 200 µL of AIM V™ medium (Invitrogen) plus 5% human serum. The plates were incubated at 37° C. for 18-20 hours. Following the incubation, ELISAs (enzyme-linked immunosorbent assays) for IFNγ were performed by using standard methods.
(§3) All values are pg/mL of IFN-gamma. T cells that were either untransduced or transduced with one of the indicated CARs were cultured with target cells overnight, and a standard IFN-gamma ELISA was performed on the culture supernatant.

T cells only = test: IFN-gamma ELISA, T cells only (no target cells); assay type: cell-based, human
Protocol: as §2
(§4) The T cells columns indicate whether T cells were transduced with Luc90-CD828Z, Luc63-CD828Z, or were untransduced. The % CAR^+ in Table B-1 was determined by staining the T cells with Protein L. Except for the % CAR^+ column, all values are pg/mL of IFN-gamma. T cells that were either untransduced or transduced with one of the indicated CARs were cultured with target cells overnight and a standard IFN-gamma ELISA was performed on the culture supernatant.
as §3
(§5) The values in the cells are pg/mL of IFN-gamma. T cells that were either untransduced or transduced with one of the indicated CARs were cultured with target cells overnight, and a standard IFN-gamma ELISA was performed on the culture supernatant. The concentrations of 0, 50, or 200 ng/mL at the top of each column indicates the concentration of soluble SLAMF7 added to all T cell plus target cell overnight cultures in that column. The soluble SLAMF7 was added at the beginning of the overnight culture.

[1] = Signs of CAR T-cell-mediated toxicity in mice; assay type: in vivo; conditions: mice after CAR T-cell infusion
Protocol: First, MM.1S human SLAMF7^+ multiple myeloma cell line tumors were established in immunodeficient mice. In this model, the MM.1S cells formed a solid cutaneous mass. Measurable tumors were allowed to develop over 7 days, and then the mice were treated with a single intravenous infusion of MSGV1-IC9-Luc90-CD828Z-transduced human T cells. NSG mice (NOD.Cg-Prkdc^scid Il2rg^tm1Wjl/SzJ) from The Jackson Laboratory, Bar Harbor, Me., were used. Mice received intradermal injections of 4×10^6 MM.1S cells. The cells were suspended in a 1:1 mixture of MATRIGEL™ gelatinous protein mixture (BD Biosciences) and PBS (Phosphate-buffered saline) for injection. Tumors were allowed to grow for 7 days, and then each mouse received a single intravenous infusion of human T cells that were transduced with one of 3 CARs: IC9-Luc90-CD828Z (suicide gene+anti-SLAMF7 CAR), Luc90-CD828Z (anti-SLAMF7 CAR alone), or a negative-control anti-CD19 CAR Hu19-CD828Z. A 4th group was left untreated. All groups included 5 mice. After CAR T-cell infusion, the tumors were measured with calipers every 3 days. The longest length and the length perpendicular to the longest length and the tumor thickness were multiplied together to obtain the tumor volume in mm^3. When the longest length reached 15 mm, mice were sacrificed. Animal studies were approved by the National Cancer Institute Animal Care and Use Committee. […]

NGFR-K562 = test: IFN-gamma ELISA, CAR T cells with NGFR-K562 target cells; assay type: cell-based, human
Description: as §1, §2, §4, §3, §5

SLAMF7-K562 = test: IFN-gamma ELISA, CAR T cells cultured overnight with SLAMF7-K562 target cells; assay type: cell-based, human
Description: as §1, §2, §4, §3

[2] = system: MM.1S human SLAMF7^+ multiple myeloma solid tumors; test: MM.1S solid tumor model in NSG mice, anti-tumor efficacy; assay type: in vivo; conditions: for anti-tumor activity: 2 million CAR^+ T cells per mouse, 5 mice per group (FIG. 17)
Protocol: First, MM.1S human SLAMF7^+ multiple myeloma cell line tumors were established in immunodeficient mice. In this model, the MM.1S cells formed a solid cutaneous mass. Measurable tumors were allowed to develop over 7 days, and then the mice were treated with a single intravenous infusion of MSGV1-IC9-Luc90-CD828Z-transduced human T cells. NSG mice (NOD.Cg-Prkdc^scid Il2rg^tm1Wjl/SzJ) from The Jackson Laboratory, Bar Harbor, Me., were used. Mice received intradermal injections of 4×10^6 MM.1S cells. The cells were suspended in a 1:1 mixture of MATRIGEL™ gelatinous protein mixture (BD Biosciences) and PBS (Phosphate-buffered saline) for injection. Tumors were allowed to grow for 7 days, and then each mouse received a single intravenous infusion of human T cells that were transduced with one of 3 CARs: IC9-Luc90-CD828Z (suicide gene+anti-SLAMF7 CAR), Luc90-CD828Z (anti-SLAMF7 CAR alone), or a negative-control anti-CD19 CAR Hu19-CD828Z. A 4th group was left untreated. All groups included 5 mice. After CAR T-cell infusion, the tumors were measured with calipers every 3 days. The longest length and the length perpendicular to the longest length and the tumor thickness were multiplied together to obtain the tumor volume in mm^3. When the longest length reached 15 mm, mice were sacrificed. Animal studies were approved by the National Cancer Institute Animal Care and Use Committee.
FIGS. 16A-16B show a dose-titration of IC9-Luc90-CD828Z-expressing T cells. In this experiment, immunocompromised NSG mice were injected intradermally with 4×10^6 MM.1S cells to form a solid mass. Mice were then treated with a single infusion of 0.5×10^6, 2×10^6, or 8×10^6, IC9-Luc90-CD828Z-expressing T cells. […] The tumor volume curves end when the first mouse of a group was sacrificed.
MM.'S tumors were established in NSG mice as described in Example 9. FIGS. 17A-17B show results in which mice bearing MM.1S tumors were treated with T cells expressing one of 3 different CARs: IC9-Luc90-CD828Z (suicide gene+anti-SLAMF7 CAR), Luc90-CD828Z (anti-SLAMF7 CAR alone), or a negative-control anti-CD19 CAR Hu19-CD828Z. A 4th group was left untreated in both experiments. All groups included 5 mice. The CARP T cell dose was 2 million CARP T cells per mouse. There were 5 mice in all groups.

MM.1S = test: IFN-gamma ELISA, CAR T cells with MM.1S target cells; assay type: cell-based, human
Description: as §1, §2, §3

[3] = dose of 2 million or more T cells per mouse

IC9-Luc90-CD828Z: CAR plus suicide gene construct (SEQ ID NO: 31): IC9 suicide gene 5′ to the CAR, T2A, Luc90-CD828Z
proliferation (CFSE dilution) (SLAMF7-K562 target cells): proliferated specifically in response to SLAMF7^+ target cells; also recorded: proliferated more | IFN-gamma, CCRF-CEM (CCRF-CEM; Table E): 33 pg/mL | IFN-gamma, T-cells Alone (T cells only; Table E): 38 pg/mL | signs of CAR T-cell-mediated toxicity [1]: did not exhibit any signs of CAR T-cell-mediated toxicity; also recorded: did not exhibit ruffled fur or decreased activity; also recorded: no toxicity | IFN-gamma, NGFR-K562 (NGFR-K562; Table E): 30 pg/mL | IFN-gamma, SLAMF7-K562 (SLAMF7-K562; Table E, overnight culture): 2225 pg/mL | dose dependence of activity against established tumors ([2]; 0.5×10^6 to 8×10^6 T cells): dose-dependent activity | anti-tumor activity [2]: powerful anti-tumor activity | survival [2, 3]: mice survive long-term | tumor eradication [2, 3]: tumors can be eradicated | effect on tumors ([2]; single infusion of 0.5×10^6 CAR^+ T cells (FIG. 16)): only slightly slowed tumor growth relative to untreated mice but did not eliminate any tumors | effect on tumors ([2]; single infusion of 2×10^6 CAR^+ T cells (FIG. 16)): eliminated all tumors | effect on tumors ([2]; single infusion of 8×10^6 CAR^+ T cells (FIG. 16)): eliminated all tumors | IFN-gamma, MM.1S (MM.1S; Table E): 1849 pg/mL

Luc90-CD828Z: anti-SLAMF7 CAR (SEQ ID NO: 27): murine Luc90 scFv, human CD8a hinge and TM, CD28 and CD3ζ domains; tested as transduced T cells
proliferation (CFSE dilution) (SLAMF7-K562 target cells): proliferated specifically in response to SLAMF7^+ target cells | IFN-gamma, target cells CCRF-CEM (CCRF-CEM; Table C): 16 pg/mL | IFN-gamma, T cells only (T cells only; Table B-2): 29 pg/mL | IFN-gamma, T cells only (T cells only; Table C): 33 pg/mL | IFN-gamma, T cells 0 ng/ml (T cells only; Table D, no target cells, soluble SLAMF7 0 ng/ml): 172 pg/mL | IFN-gamma, T cells 50 ng/ml (T cells only; Table D, no target cells, soluble SLAMF7 50 ng/ml): 160 pg/mL | IFN-gamma, T cells 200 ng/ml (T cells only; Table D, no target cells, soluble SLAMF7 200 ng/ml): 41 pg/mL | signs of CAR T-cell-mediated toxicity [1]: did not exhibit ruffled fur or decreased activity | IFN-gamma, target cells NGFR-K562 (NGFR-K562; Table B-2, SLAMF7-negative): 45 pg/mL | IFN-gamma, target cells NGFR-K562 (NGFR-K562; Table C): 26 pg/mL | IFN-gamma, target cells NGFR K562 0 ng/ml (NGFR-K562; Table D, soluble SLAMF7 added 0 ng/ml): 267 pg/mL | IFN-gamma, target cells NGFR K562 50 ng/ml (NGFR-K562; Table D, soluble SLAMF7 added 50 ng/ml): 223 pg/mL | IFN-gamma, target cells NGFR K562 200 ng/ml (NGFR-K562; Table D, soluble SLAMF7 added 200 ng/ml): 224 pg/mL | IFN-gamma, target cells SLAMF7-K562 (SLAMF7-K562; Table B-1, overnight culture): 16579 pg/mL | IFN-gamma, target cells SLAMF7-K562 (SLAMF7-K562; Table B-2, overnight culture): 20055 pg/mL | IFN-gamma, target cells SLAMF7-K562 (SLAMF7-K562; Table C): 15759 pg/mL | anti-tumor activity [2]: powerful anti-tumor activity | IFN-gamma, target cells MM.1S (MM.1S; Table C): 4269 pg/mL
